Measurements: patent publication EP4385495A1, “NANOSYSTEMS FOR THE ENCAPSULATION OF THERAPEUTIC AGENTS” (National Technical University of Athens, priority 2022, dated 2024)

How the values were obtained:
IL-6 in RAW264.7 cells = experiment: IL-6 ELISA in supernatants of LPS-stimulated RAW264.7 cells; format: cell-based, mouse; conditions: 48h after dilution of nanosystems
Method: The assay was carried using the MOUSE IL-6 ELISA KIT by ORIGENE_(CATALOG No. EA100128), which was based on the evaluation on Microwell Plates coated with antibody to mouse IL-6. The general protocol provided by the supplier for the evaluation of the samples as well as the development of the standard curve of IL-6 was followed. All reagents and working standards were prepared as directed in the instruction form and determined the number of microwell strips required to test the desired number of samples plus appropriate number of wells needed for running blanks and standards. Then 100µL of Standard, control, or sample, were added per well and the plate was cover with the adhesive strip provided and incubated for 1.5 hours at 37°C.
Afterwards, each well was aspirated and washed, and the process was repeated three times for a total of four washes by filling each well with Wash Buffer. […]
After incubation washing was carried out again, followed by the addition of the working solution of Streptavidin-HRP to each well. […] Finally, the plate was gently tapped to ensure thorough mixing and determine the optical density (OD) of each well immediately, using a microplate reader set to 450 nm (optionally 630nm as the reference wavelength;610-650nm is acceptable).
The OD measured for all samples is reflected on the IL-6 standard curve which was developed following the same steps. […] This quantitative assay is based on the sandwich principal as previously described, utilizing the cell culture supernatants for the evaluation of IL-6 protein presence in LPS-treated cells in the presence of the evaluated samples.
For this protocol, RAW264.7 cells were treated with LPS prior to the measurement to stimulate IL-6 production and results are reported as pg/ml of IL-6 corresponding to the standard curve of IL-6 developed ([…]). […] Table 3: Anti-inflammatory potential of the samples expressed as IL-6 presence in LPS-stimulated RAW264.7 cells supernatants.

CCK-8 viability assay = format: cell-based; conditions: human, primary human chondrocytes; read-out: Mean % relative viability
Method: b) The viability of human primary chondrocytes was evaluated following incubation with increasing concentrations of either the pure Naringin (S1) or the nanosystems (Samples S2 and S3) at 2-10-50µM of encapsulated Naringin (1:5 serial dilutions) for 72h (higher concentrations were not used because the nanosystems become insoluble and aggregates sediment on the cell monolayer). For S2 this corresponded to 6,4 µg/ml (for 2 µM of Naringin), 32 µg/ml (for 10 µM of Naringin) and 158 µg/ml (for 50 µM of Naringin) respectively, of total NP concentration. For S3 (CS[PLA[NAR]]) the total NP concentrations to provide the same µM of encapsulated Naringin were 14,4 / 72 / 360 µg/m). As control for the nanosystems, a blank PLA nanoparticle preparation coated with chitosan (S4) was used, at the same µg/ml polymer concentration like the ones used to achieve the 2-10-50µM range for Naringin (the difference being that the blank contains no Naringin). Finally, the blank S4 was used at the 14,4/72/360 µg/ml concentration range (1:5 serial dilutions). Following incubation, the CCK-8 viability kit was used according to manufacturer's instructions (Sigma, 96992-500TESTS-F). Macroscopical and microscopical observation confirmed the proper complete solubility and dispersion of the Nanoparticles. Importantly, healthy cell morphology was observed (spindle-like attached cells with several processes) with concomitant absence of undissolved material.
Table 5. Effect of the natural products and the nanosystems on the relative cell viability of primary human chondrocytes. Measurements obtained using the CCK-8 viability kit. Values normalized to positive control (PC; set to 100; arbitrary unit). Samples' coding: S1= pure Naringin, S2=Naringin encapsulated in PLA nanoparticles [PLA[NAR]], S3=Naringin encapsulated in PLA nanoparticles coated with chitosan CS[PLA[NAR]], and S4=Blank PLA nanoparticles coated with chitosan, CS(PLA[---]].

[1] = test system: experimental animal model of osteoarthritis (OA); experiment: Knee diameter (digital caliper) and gross observations in collagenase-induced osteoarthritis rat model; format: in vivo, Wistar rats; conditions: for Right knee diameter: collagenase-injected knee; for Left knee diameter: untreated control knee
Method: In order to understand the anti-inflammatory and antioxidant potential of the nanoparticles of the invention in vivo an experimental animal model of osteoarthritis (OA) was established. The OA lesions were caused by matrix degradation of articular cartilage using enzymatic means, such as collagenase type-II. Following the induction of osteoarthritis, the studied nanoparticles were administered for 8 weeks in which period the morphological and behavioral changes were measured and finally histological analysis of the articular cartilage samples concluded the in vivo study.
(§1) Healthy adult male Wistar rats (150-200 g) were used for the study, with water and food ad libitum, at a constant temperature of 22°C and controlled lighting (12 h light/12 h dark cycle).
(§2) As far as the dispersion procedure of the injectables is concerned, all the natural compounds were dissolved in saline solution, whereas the studied nanoparticles were mechanically grinded in a mortar and pestle set with saline solution and Tween 20 (2% w/v) and heated at 36 °C before each treatment. There were six treatments administered every 10 days. At the end of the experiment rats were euthanized and both knees were collected for histological analysis.
(§3) Rats were anesthetized with chloral hydrate. The right knee joints of Group I were injected with normal saline solution and served as a control. Animals from the groups II, III, IV, V, VI, VII were injected with collagenase type II (Clostridium histolyticum). Collagenase (125 collagen digestion unit/mg) was dissolved in saline, and it was injected intra-articularly into the right knee joint twice on days 1 and 4 of the experiment (Al-Saffar, F., H. Ganabadi and S. Fakurazi. Collagenase and sodium iodoacetate-induced experimental osteoarthritis model in Sprague dawley rats. Asian J. Sci. Res. 2: 1-13, 2009). The left knees of all animals were left untreated as a control.
Changes in body weight and knee diameter were measured on the 1st, 4th,11th,21st,31st,41st,51st, 61st, 71st day before every injection. Knee diameter was measured using a digital caliper. […] A change in body weight is also measured as one of the parameters to assess the course of the disease in the OA animal models.

[2] = test system: experimental animal model of osteoarthritis (OA); experiment: Grid-walking test in osteoarthritis rat model; format: in vivo, Wistar rats
Method: as §1, §2, §3
For the evaluation of the effectiveness and time of release of the encapsulated compounds, all animals were subjected to a series of behavioral testing in addition to the measurements of body weight and knees diameter change. The experimental protocol of the present study followed the combination of three different behavioral tests, which are von Frey mechanical allodynia test, grid walking and slope walking test. Behavioral tests are performed in three phases, at the beginning before the start of treatment, in the middle of treatment (approximately 35-40 days) and at the end (after the 70th day).
In this test the rats were allowed to explore freely for 4 minutes in a wire grid and when one of the limbs fell below the grid surface during free walking, the observer counted the number of foot-fault errors (footslips) (Starkey, M. L., Barritt, A. W., Yip, P. K., Davies, M., Hamers, F. P. T., McMahon, S. B., & Bradbury, E. J. (2005). Assessing behavioural function following a pyramidotomy lesion of the corticospinal tract in adult mice. Experimental Neurology, 195(2), 524-539. doi:10.1016/j.expneurol.2005.0).

[3] = 40 days (half of experimental protocol)
[4] = 70 days (end of experimental protocol)

Question: Which IL-6 (IL-6 in RAW264.7 cells; 25 µM) does the source give for `C[C@@H]1O[C@@H](O[C@H]2[C@H](Oc3cc(O)c4c(c3)O[C@H](c3ccc(O)cc3)CC4=O)O[C@H](CO)[C@@H](O)[C@@H]2O)[C@H](O)[C@H](O)[C@H]1O` [S1 [NAR], Naringin] here?
Answer: 720,000 pg/ml

Question: And the IL-6 (IL-6 in RAW264.7 cells; 50 µM)?
Answer: 700,000 pg/ml

Question: What about the IL-6 (IL-6 in RAW264.7 cells; 100 µM) of the same compound?
Answer: 455,000 pg/ml

Question: What about the viability at 72 h, 10 µM (CCK-8 viability assay) of the same compound?
Answer: 136%

Question: And the viability at 72 h, 50 µM (CCK-8 viability assay)?
Answer: 130%

Question: And the viability at 72 h, 200 µM (CCK-8 viability assay)?
Answer: 111%

Question: And the “% Changes in Left knee diameter” value ([1]; 11 days (before treatment))?
Answer: 0,26%

Question: And the “% Changes in Right knee diameter” value ([1]; 11 days (before treatment))?
Answer: 4,14%

Question: And the “% Changes in Left knee diameter” value [1, 3]?
Answer: 0,79%

Question: And the “% Changes in Right knee diameter” value [1, 3]?
Answer: 3,25%

Question: What about the “% Changes in Left knee diameter” value [1, 4] of the same compound?
Answer: 0,84%

Question: And the “% Changes in Right knee diameter” value [1, 4]?
Answer: 2,35%

Question: And the Right knee diameter ([1]; 1st injection CO/saline (before treatment))?
Answer: 0,85 cm

Question: What about the Right knee diameter ([1]; 1st treatment, 10 mg/kg (S1, ibuprofen i.p.; nanoparticles i.a.)) of the same compound?
Answer: 0,8852 cm

Question: And the Right knee diameter ([1]; 2nd injection CO/saline (before treatment))?
Answer: 0,882 cm

Question: And the Right knee diameter ([1]; 3rd treatment)?
Answer: 0,9 cm

Question: What about the Right knee diameter ([1]; 4th treatment) of the same compound?
Answer: 0,8776 cm

Question: What about the Right knee diameter ([1]; 5th treatment) of the same compound?
Answer: 0,8712 cm

Question: What about the Right knee diameter ([1]; 6th treatment) of the same compound?
Answer: 0,87 cm

Question: What about the Right knee diameter ([1]; final) of the same compound?
Answer: 0,87 cm

Question: And the Left knee diameter ([1]; 1st injection CO/saline)?
Answer: 0,8572 cm

Question: And the Left knee diameter ([1]; 1st treatment)?
Answer: 0,8594 cm

Question: And the Left knee diameter ([1]; 2nd injection CO/saline)?
Answer: 0,858 cm

Question: And the Left knee diameter ([1]; 4th treatment)?
Answer: 0,864 cm

Question: What about the Left knee diameter ([1]; final) of the same compound?
Answer: 0,8644 cm

Question: What about the “Foot fault in grid-walk test (4 min)” value ([2]; 11 days left paw) of the same compound?
Answer: 3,4

Question: What about the “Foot fault in grid-walk test (4 min)” value ([2]; 11 days right paw) of the same compound?
Answer: 5,6

Question: What about the “Foot fault in grid-walk test (4 min)” value ([2]; 40 days left paw) of the same compound?
Answer: 2

Question: And the “Foot fault in grid-walk test (4 min)” value ([2]; 40 days right paw)?
Answer: 3

Question: What about the “Foot fault in grid-walk test (4 min)” value ([2]; 70 days left paw) of the same compound?
Answer: 2,8

Question: And the “Foot fault in grid-walk test (4 min)” value ([2]; 70 days right paw)?
Answer: 2,4
